From PMC7824111, “Targeting Cytokinin Homeostasis in Rapid Cycling Brassica rapa with Plant Growth Regulators INCYDE and TD-K” (Plants, 2020)

Columns and labels:
AHK3 = biological target: T1, AHK3 (Arabidopsis thaliana, UniProt Q9C5U1); test: E. coli receptor activation assay; type: cell-based
T1 sequence (Q9C5U1 1-1036): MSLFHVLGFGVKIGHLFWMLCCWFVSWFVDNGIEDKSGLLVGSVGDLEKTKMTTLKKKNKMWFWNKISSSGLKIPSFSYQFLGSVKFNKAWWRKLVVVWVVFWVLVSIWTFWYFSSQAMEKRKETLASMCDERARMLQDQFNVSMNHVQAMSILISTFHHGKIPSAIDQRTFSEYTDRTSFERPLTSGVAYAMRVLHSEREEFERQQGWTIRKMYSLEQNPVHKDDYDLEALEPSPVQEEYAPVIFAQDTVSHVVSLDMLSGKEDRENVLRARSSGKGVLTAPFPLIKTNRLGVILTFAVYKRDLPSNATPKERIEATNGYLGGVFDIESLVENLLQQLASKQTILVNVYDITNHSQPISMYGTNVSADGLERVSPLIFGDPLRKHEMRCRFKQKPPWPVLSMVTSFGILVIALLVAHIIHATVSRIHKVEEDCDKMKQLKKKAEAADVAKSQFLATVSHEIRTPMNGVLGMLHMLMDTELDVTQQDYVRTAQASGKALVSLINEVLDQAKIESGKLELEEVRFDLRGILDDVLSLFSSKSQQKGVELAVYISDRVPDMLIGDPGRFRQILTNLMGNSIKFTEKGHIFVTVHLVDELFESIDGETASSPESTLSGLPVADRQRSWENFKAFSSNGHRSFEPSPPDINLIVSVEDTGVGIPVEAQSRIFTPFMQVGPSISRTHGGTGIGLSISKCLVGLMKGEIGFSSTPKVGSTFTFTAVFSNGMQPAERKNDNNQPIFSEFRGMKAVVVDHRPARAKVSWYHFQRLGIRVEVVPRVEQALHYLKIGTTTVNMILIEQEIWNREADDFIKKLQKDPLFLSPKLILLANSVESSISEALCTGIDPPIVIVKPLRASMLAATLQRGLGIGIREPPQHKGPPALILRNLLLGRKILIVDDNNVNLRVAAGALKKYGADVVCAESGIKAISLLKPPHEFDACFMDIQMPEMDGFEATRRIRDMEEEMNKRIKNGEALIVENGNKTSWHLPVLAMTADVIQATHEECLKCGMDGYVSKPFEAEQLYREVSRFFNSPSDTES

CRE1/AHK4 = CRE1/AHK4 (Arabidopsis thaliana, UniProt Q9C5U0); test: E. coli receptor activation assay; type: cell-based
Sequence of CRE1/AHK4 (Q9C5U0 whole entry): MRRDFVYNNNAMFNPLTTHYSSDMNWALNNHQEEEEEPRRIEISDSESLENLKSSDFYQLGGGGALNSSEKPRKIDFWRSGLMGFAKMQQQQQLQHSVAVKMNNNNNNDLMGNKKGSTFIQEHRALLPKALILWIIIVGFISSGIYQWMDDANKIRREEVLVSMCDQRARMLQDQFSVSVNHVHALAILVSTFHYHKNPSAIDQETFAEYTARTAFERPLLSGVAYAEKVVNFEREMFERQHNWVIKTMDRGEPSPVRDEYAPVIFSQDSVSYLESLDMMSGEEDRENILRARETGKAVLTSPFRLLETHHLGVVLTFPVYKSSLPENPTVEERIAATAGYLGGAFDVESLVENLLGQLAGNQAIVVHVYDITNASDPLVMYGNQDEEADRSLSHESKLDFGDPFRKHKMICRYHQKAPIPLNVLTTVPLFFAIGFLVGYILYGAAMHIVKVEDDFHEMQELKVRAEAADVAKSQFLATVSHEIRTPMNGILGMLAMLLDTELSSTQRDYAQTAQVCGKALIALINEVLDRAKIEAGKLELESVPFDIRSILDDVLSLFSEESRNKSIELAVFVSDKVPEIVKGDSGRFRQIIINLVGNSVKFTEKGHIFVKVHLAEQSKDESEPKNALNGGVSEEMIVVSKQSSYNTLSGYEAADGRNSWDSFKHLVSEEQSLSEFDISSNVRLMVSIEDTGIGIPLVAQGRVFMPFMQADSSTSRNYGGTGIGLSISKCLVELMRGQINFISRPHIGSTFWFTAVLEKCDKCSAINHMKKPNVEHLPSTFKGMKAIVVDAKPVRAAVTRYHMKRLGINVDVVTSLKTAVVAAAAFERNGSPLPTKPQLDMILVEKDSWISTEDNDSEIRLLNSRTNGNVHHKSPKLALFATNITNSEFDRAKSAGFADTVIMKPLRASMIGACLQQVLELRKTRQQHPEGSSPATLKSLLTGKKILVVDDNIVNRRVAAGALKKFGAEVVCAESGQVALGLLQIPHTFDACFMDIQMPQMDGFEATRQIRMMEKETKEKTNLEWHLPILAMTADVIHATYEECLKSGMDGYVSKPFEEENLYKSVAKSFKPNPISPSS

SMILES	E. coli receptor activation assay (AHK3)	E. coli receptor activation assay (CRE1/AHK4)
C/C(=C\CNc1ncnc2[nH]cnc12)CO [tZ, trans-zeatin]	~ 10 nM	~ 1 μM
O=C(NCc1ccccc1)Nc1cnns1 [TD-BA]	–	~ 50 μM
O=C(Nc1ccccc1)Nc1cnns1 [TDZ, 1-phenyl-3-(1,2,3-thiadiazol-5-yl) urea]	~ 10 nM	~ 1 μM
